The test system of series [1] is hiPSC-derived NSCs undergoing differentiation. Details: method as in PMID 32093744. To be noted: 14-day treatment, resazurin, cited from earlier work.
For series [2] the test system is unchanged. The series is described as follows: Neurite outgrowth by immunocytochemistry and high content imaging (β-III-tubulin). Type of series: cell-based, human. To be noted: 14 days. The procedure:
After 14 days of treatment with CPF at the nominal concentrations of 18.45, 21.21, 24.39, 28.05, 32.26, and 37.10 μM (37.10 μM equal to IC20), obtained considering a 1-to-1.15 dilution factor, cells were fixed with 4 % formaldehyde for 10 min and washed three times in PBS 1 × . After 15 min permeabilization with PBS 1X containing 0.1 % Triton-X-100 and 3,5 % bovine serum albumin (BSA), cells were further incubated with 3,5 % BSA and 1X PBS (blocking solution) for 15 min, to prevent nonspecific binding of antibodies, and then incubated at 4 °C overnight with primary antibodies in blocking solution. For synaptogenesis analysis, cells were stained with microtubule-associated protein-2 (MAP2, chicken, 1:3000, Abcam), synaptophysin (pre-synaptic marker) (SYP, rabbit, 1:300, Abcam), and post-synaptic density protein 95 (PSD95, mouse, 1:300, Abcam) specific antibodies. Neurite outgrowth and BDNF protein levels were assessed by staining the cells with an antibody specific for β-III-tubulin (mouse, 1:500, ThermoFisher), and one for BDNF (rabbit, 1:70, ThermoFisher). Cells were also stained for glial fibrillary acidic protein (GFAP, chicken, 1:500, Abcam). The following day, cells were washed three times with PBS 1X and incubated for 1 h at room temperature in the dark with DyLight-conjugated secondary antibodies (1:500, Abcam) and nuclei counterstained with 1 μg/mL DAPI (ThermoFisher). Mean fluorescence intensity and the relative percentages of immunocytochemically-defined cell types were quantified using the ArrayScan™ XTI High Content Platform (Cellomics) (ThermoFisher) and the ArrayScan algorithm 'Neuronal Profiling V4.1', as previously described. This algorithm applies a specific nucleus mask around the DAPI stained nucleus, distinguishing between live and pyknotic/dead cells, a cell body mask around the cell type antibody/antigen staining (i.e., MAP2, β-III-tubulin, or GFAP). Other masks were applied to identify the neurites, their branch points, and the fluorescence intensity levels of SYP and PSD95 puncta, or BDNF protein. […]

Series [3] shares this test system. Nature of the series: Spontaneous electrical activity by multi-well MEA. The class given is cell-based, human. The procedure: Cells were plated in complete ND medium onto polyethyleneimine (PEI)- and laminin-coated 24-well-MEA plates (24-Well Plate Glass (24W300/30G-288) V.232, 12 gold microelectrodes/well) (MultiChannel Systems) (5 × 10^5 cells/well), and on day 7 of differentiation cells were treated with CPF at 21 μM or solvent control (0.1 % DMSO) for 14 days. Electrical activity was evaluated before adding CPF (0d) or solvent control, and monitored after 3, 7, 10 and 14 days of treatment (Fig. 2). Representative electrode recordings were considered for the analysis of spike rate (number of spikes/sec), burst count (considering a burst as a train of at least 5 spikes occurring within 100 millisec), and network burst count (the number of bursts that resulted synchronized among all 12 electrodes). Electrical activity was recorded using the Multi-well MEA-System, considering a sampling rate of 20,000 Hz, a low-pass filter cutoff frequency of 3500 Hz, and a high-pass filter cutoff frequency of 100 Hz. Data represent the average of at least three biological replicates.

The conditions of series [4]: cited from earlier work.
Series [5] relates to neuron-only cultures. To be noted: cited from earlier work.
A short description of series [6]: Cross-contamination among wells. Type of series: physicochemical. The procedure: In the adjacent wells to those containing CPF, at the applied concentrations, a corresponding amount of DMSO (vehicle control) was added. At the end of the experiment, the content of these control wells was stored at −80 °C until HPLC analysis. The CPF content in control wells served as an indication of possible contamination across wells, due to CPF evaporation.

The conditions of series [7]: cited from earlier work. The source holds these as a separate data set.
For series [8], the system named is hiPSC-derived NSCs undergoing differentiation. Details: method as in PMID 32093744. To be noted: 14-day treatment; cited from earlier work.
Series [9] shares this test system. Nature of the series: Synaptogenesis by immunocytochemistry and HCI (overlapping SYP+/PSD95+ puncta). The class given is cell-based, human. To be noted: 14 days, concentrations ≤ IC20. As to the method: After 14 days of treatment with CPF at the nominal concentrations of 18.45, 21.21, 24.39, 28.05, 32.26, and 37.10 μM (37.10 μM equal to IC20), obtained considering a 1-to-1.15 dilution factor, cells were fixed with 4 % formaldehyde for 10 min and washed three times in PBS 1 × . After 15 min permeabilization with PBS 1X containing 0.1 % Triton-X-100 and 3,5 % bovine serum albumin (BSA), cells were further incubated with 3,5 % BSA and 1X PBS (blocking solution) for 15 min, to prevent nonspecific binding of antibodies, and then incubated at 4 °C overnight with primary antibodies in blocking solution. […] Neurite outgrowth and BDNF protein levels were assessed by staining the cells with an antibody specific for β-III-tubulin (mouse, 1:500, ThermoFisher), and one for BDNF (rabbit, 1:70, ThermoFisher). […] Mean fluorescence intensity and the relative percentages of immunocytochemically-defined cell types were quantified using the ArrayScan™ XTI High Content Platform (Cellomics) (ThermoFisher) and the ArrayScan algorithm 'Neuronal Profiling V4.1', as previously described. […] Other masks were applied to identify the neurites, their branch points, and the fluorescence intensity levels of SYP and PSD95 puncta, or BDNF protein. […]

Setting [10] is: 21 μM (IC5), significant after 7-day treatment.

SMILES strings stand for the structures.

As to `CCOP(=S)(OCC)Oc1nc(Cl)c(Cl)cc1Cl` [CPF, Chlorpyrifos], in [1], the “IC5 (nominal concentration causing 5 % decrease of viability)” value is 21 µM. Further, the IC20 (commonly the point of the concentration-response curve where the effect stands at 20%) in series [1] (nominal concentration, read-out: IC20 (viability)) was 37.1 µM. Further, in series [2] (concentrations ≤ IC20), the length of neurites entry was “not significantly affected” and the “number of branch points/neurite (neurite complexity)” value is “lower number of branch points/neurite”. Further, the number of neurites/neuron entry in [2] (concentrations ≤ IC20 (18.45-37.10 μM)) is reported as “concentration dependent decrease”. In series [3] (setting [10]), the number of bursts result was “modest decrease” and the spike rate entry was “modest decrease”. Besides, the “number of synchronized network bursts” value in series [3] (21 μM, starting from the 10th day of treatment) is listed as “decrease”. For the same compound, the vapour pressure in [4] (at 25 °C) was 2.02 × 10^−5 mm Hg. The “log Kow, octanol/water partition coefficient” value in series [4] is recorded as 4.96. For the same compound, the “concentration from which inhibition of neurite length, neurite number and branch points was observed” value in series [5] was 10 µM. Also, in series [6] (first day of treatment), the Cross-contamination among wells entry is recorded as “Not detectable”. In addition, in series [6] (last day of treatment), the Cross-contamination among wells entry is “Not detectable”. In series [7], the “exposure in new-borns, concentration in blood” value is “up to 4.9 μM” and the “exposure in new-borns, concentration in meconium” value was 23.6 µM. Further, the “in vitro nominal LOAEC for synaptogenesis” value in [8] is 21 µM. Further, in series [9], the “number of synapses (co-localization of SYP+/PSD95+ puncta)” value is listed as “remarkable dose-dependent decrease”.
